According to US20180172712A1, “METHODS AND MATERIALS FOR ASSESSING HYDROGEN PEROXIDE ACCUMULATION IN CELLS” (Mayo Foundation for Medical Education and Research, priority 2015, published 2018):

Columns and labels:
XBP-1 mRNA = XBP-1 mRNA splicing by PCR; type: cell-based, human; conditions: lenalidomide 10 μM, 3 days
Description: (§1) Total RNA from HMCLs treated with lenalidomide was isolated using the Qiagen RNeasy mini kit. RNA (1 μg) was used for cDNA synthesis using iScript Reverse Transcription Supermix (Bio-Rad). Real-time polymerase chain reaction (PCR) was performed using the SYBR green method. The following primers were used for amplification: […]
(§2) The fold change of the mRNA expression was calculated from the difference between treated and untreated cells, after normalizing to an endogenous control (β-actin). Primers encompassing the spliced sequences in XBP1 mRNA were used for PCR amplification, and products were separated by electrophoresis through a 2.5% agarose gel and visualized by ethidium bromide staining. All reactions were conducted in triplicate.

IgL-λ mRNA = test: Real-time PCR for IgL-λ mRNA; type: cell-based, human; conditions: FIG. 8B; 10, 30, or 50 μM, 72 hours
Description: as §1, §2

[1] = system: ER stress markers in OPM2-NT and OPM2-shCRBN cells; test: ER stress immunoblot in OPM2-NT and OPM2-shCRBN cells; type: cell-based, human
Excerpt: (§3) Proteins were transferred to polyvinylidene fluoride membranes (Bio-Rad).

MM.1Sres cells = test: MTT assay in MM.1Sres cells; type: cell-based, human
Excerpt: (§4) The data were normalized to the DMSO-treated group.

[2] = system: OPM2-NT and OPM2-shCRBN cells; test: MTT assay in OPM2-NT and OPM2-shCRBN cells; type: cell-based, human; conditions: OPM2-NT vs OPM2-shCRBN, increasing concentrations, 3 days
Excerpt: as §4

[3] = system: intracellular peroxidases in HMCLs; test: Intra-cellular peroxidase activity by Amplex Red in HMCLs; type: cell-based, human; conditions: different myeloma cell lines; thalidomide 20 μM, lenalidomide 20 μM, pomalidomide 10 μM; 40 to 60 minutes
Description: (§5) After 30 minutes, plates were read for fluorescence at 530 nm excitation and 590 nm emission with plate reader (Biotek Cytation3). For determining intra-cellular peroxidase activity by Amplex Red, cells were washed and mixed with Amplex Red reagent (50 μM) in HBSS buffer and plated 100,000 cells per well into 96 well plate, four wells for each condition. […] The DMSO control included H2O2 (100 μM). […] After specific time periods, the plates were read for fluorescence intensity using plate reader.

IgL-λ dimers [4] = test: IgL dimerization immunoblot under nonreducing conditions in MM.1S cells; type: cell-based, human; conditions: 3 hours, lenalidomide 10 μM or H2O2 25 μM
Excerpt: as §3

RPMI-8226 cells = test: MTT assay in RPMI-8226 cells; type: cell-based, human; conditions: RPMI-8226, 3 days
Excerpt: as §4

Bip = Bip immunoblot in other isogenic HMCLs (MM.1S/MM.1Sres, KMS18-NT/KMS18-shCRBN); type: cell-based, human; conditions: CRBN-positive vs CRBN-negative cells, 3 days
Excerpt: as §3

Horseradish peroxidase = target: T1, Horseradish peroxidase (Armoracia rusticana, UniProt P00433); test: HRP/Amplex Red in-vitro assay; type: biochemical; conditions: 10 μM drug, 5 μM H2O2, 30 minutes
T1 sequence (P00433 31-338 limits assumed): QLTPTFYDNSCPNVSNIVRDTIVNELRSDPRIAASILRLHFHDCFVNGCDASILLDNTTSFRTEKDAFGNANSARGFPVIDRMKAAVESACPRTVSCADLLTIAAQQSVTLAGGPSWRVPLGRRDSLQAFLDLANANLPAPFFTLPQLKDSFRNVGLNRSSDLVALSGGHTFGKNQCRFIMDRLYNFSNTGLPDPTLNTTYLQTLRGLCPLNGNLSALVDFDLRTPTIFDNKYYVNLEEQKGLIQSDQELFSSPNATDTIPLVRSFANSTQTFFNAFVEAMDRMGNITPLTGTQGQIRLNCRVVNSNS
Description: as §5

KMS11 cells = test: MTT assay in KMS11 cells; type: cell-based, human; conditions: KMS11, 3 days
Excerpt: as §4

IgL-λ = IgL-λ secretion and intracellular level (immunoblot, ELISA) in OPM2-NT and OPM2-shCRBN cells; type: cell-based, human
Excerpt: as §3

JJN3 cells = test: MTT assay in JJN3 cells; type: cell-based, human; conditions: JJN3, 3 days
Excerpt: as §4

IgL-λ dimers [5] = test: IgL dimerization immunoblot in MM.1S and MM.1Sres cells; type: cell-based, human; conditions: MM.1S and MM.1Sres treated for 3 days
Excerpt: as §3

MM.1S cells [6] = test: Intracellular ROS by DCFDA flow cytometry; type: cell-based, human; conditions: MM.1S cells pretreated with DCFDA 30 minutes; lenalidomide 10 μM vs vehicle
Description: Post-treatment reactive oxygen species (ROS) levels were determined using the cell-permeable fluorogenic probe DCFDA (Invitrogen Biosciences). Briefly, million cells per 2 mL (2 million cells in 4 mL medium) were cultured overnight. DCFDA (50 μM) was added to suspended cells and incubated for 30 minutes in the dark. Cells were collected and washed once with phosphate-buffered saline (PBS) and split into 2 FACS tubes. […] Cells were analyzed using a FACSCalibur system (Becton and Dickinson), with excitation and emission spectra set at 488 and 530 nm, respectively. CellQuest software was used to calculate H2O2 production by measuring the increase in mean fluorescence.

MM.1S cells [7] = test: MTT assay in MM.1S cells; type: cell-based, human; conditions: 3 days
Excerpt: as §4

For `Nc1cccc2c1CN(C1CCC(=O)NC1=O)C2=O` (stereo not drawn) [lenalidomide], the “mRNA splicing of XBP-1” value (XBP-1 mRNA) was “more evident in OPM2-NT cells than CRBN-knockdown cells”, the “IgL-λ mRNA expression” value (IgL-λ mRNA) was “unchanged” and the ER stress response ([1]; 3 days, increasing concentrations (10, 30, or 50 μM)) was “an ER stress response occurred in OPM2-NT cells, but not in CRBN-knockdown cells”. For the same molecule, the GRP78/BiP protein ([1]; CRBN-positive cells, 3 days) was “accumulated”, the IRE1α protein level ([1]; CRBN-positive cells, 3 days) was “markedly decreased” and the p53 protein levels ([1]; CRBN-positive cells, 3 days) was “decreased”. The “p53 and PARP levels” value ([1]; CRBN-positive lenalidomide-sensitive cells, 6 days) was “complete degradation of p53 and PARP proteins”, the “sensitivity of cell line (MTT)” value (MM.1Sres cells) was “resistant” and the “CRBN dependence of cytotoxicity (MTT)” value [2] was “CRBN dependent”. The “intracellular H2O2 decomposition mediated by peroxidases” value [3] was “inhibit intracellular H2O2 decomposition”, the “formation of IgL-λ dimers” value (IgL-λ dimers [4]) was “increased formation of IgL-λ dimers” and the “sensitivity of cell line (MTT)” value (RPMI-8226 cells) was “resistant”. The Bip protein (Bip) was “accumulation of Bip protein in CRBN-positive cells, but not in CRBN-negative cells”, the “decomposition of H2O2 by horseradish peroxidase (Amplex Red to resorufin)” value (Horseradish peroxidase) was “inhibited” and the “sensitivity of cell line (MTT)” value (KMS11 cells) was “sensitive”. For the same molecule, the “total intracellular IgL protein” value (IgL-λ; FIG. 8C, 72 hours) was “increased total intracellular IgL protein”, the “secretion of IgG-λ / IgL-λ” value (IgL-λ; FIG. 8D-E) was “decreased secretion” and the “sensitivity of cell line (MTT)” value (JJN3 cells) was “resistant”. The IgL-λ dimers (IgL-λ dimers [5]) was “IgL-λ dimers were observed only in MM.1S”, the “intracellular H2O2 (DCF fluorescence by FACS)” value (MM.1S cells [6]) was “increasing intracellular H2O2” and the “sensitivity of cell line (MTT)” value (MM.1S cells [7]) was “hypersensitive”.
